Measured values taken from article PMC11649397, “The study of halogen effect on the reactivity of the serine-targeting covalent warheads” (Frontiers in Chemistry, 2024).
Like-named read-outs stand apart in the source and are kept apart here.

Assays:
[1] = target: T1, hCES2A (Homo sapiens, UniProt O00748); assay: Inhibition assay on hCES2A (fluorescent substrate FD); assay type: biochemical; conditions: for selective inhibitory activity on hCES2A: 10 μM, selectivity screening; for IC50: mean ± SD, n = 3
T1 sequence (O00748 27-559): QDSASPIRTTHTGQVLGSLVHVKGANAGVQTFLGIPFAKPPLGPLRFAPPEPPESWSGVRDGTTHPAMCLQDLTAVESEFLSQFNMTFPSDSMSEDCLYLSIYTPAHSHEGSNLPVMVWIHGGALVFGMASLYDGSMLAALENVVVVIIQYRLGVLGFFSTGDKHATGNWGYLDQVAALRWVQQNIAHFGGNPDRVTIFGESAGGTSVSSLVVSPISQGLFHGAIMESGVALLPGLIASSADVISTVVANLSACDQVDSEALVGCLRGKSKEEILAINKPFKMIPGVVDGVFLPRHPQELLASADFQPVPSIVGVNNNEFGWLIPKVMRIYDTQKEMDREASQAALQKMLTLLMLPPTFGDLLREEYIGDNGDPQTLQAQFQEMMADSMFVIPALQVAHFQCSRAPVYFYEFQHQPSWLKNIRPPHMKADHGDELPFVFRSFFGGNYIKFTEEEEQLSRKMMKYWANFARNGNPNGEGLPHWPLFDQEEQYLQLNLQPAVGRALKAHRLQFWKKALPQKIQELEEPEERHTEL
Description: (§1) 1. Detailed experimental, materials, and methods
(§2) The household library of covalent fragments including D and F was from Organic Chemistry […]
Fig. S1. Partial fragment molecules of a household library targeting to serine. […]
Inhibition assay on hCES2A
Human carboxylesterase 2 (hCES2A) inhibition assays were conducted using FD, a known fluorescent substrate. 3 Briefly, hCES2A (0.4 μg/mL, final concentration) was preincubated with analytes/DMSO (as a control group) in PBS (pH 7.4) at 37 °C for 3 min. This was followed by adding the substrate FD (4 μM, final concentration) in the incubation mixture and allowing it to react for 30 min. The fluorescent signals (excitation/emission, 480 nm/525 nm) were continuously recorded by a microplate reader (SpectraMax iD3Molecular Devices, Austria). […]

[2] = target: T2, human pancreatic lipase (hPL) (Homo sapiens, UniProt P16233); assay: Inhibition assay on human pancreatic lipase (substrate DDAO-ol); assay type: biochemical; conditions: 10 μM, selectivity screening
T2 sequence (P16233 17-465): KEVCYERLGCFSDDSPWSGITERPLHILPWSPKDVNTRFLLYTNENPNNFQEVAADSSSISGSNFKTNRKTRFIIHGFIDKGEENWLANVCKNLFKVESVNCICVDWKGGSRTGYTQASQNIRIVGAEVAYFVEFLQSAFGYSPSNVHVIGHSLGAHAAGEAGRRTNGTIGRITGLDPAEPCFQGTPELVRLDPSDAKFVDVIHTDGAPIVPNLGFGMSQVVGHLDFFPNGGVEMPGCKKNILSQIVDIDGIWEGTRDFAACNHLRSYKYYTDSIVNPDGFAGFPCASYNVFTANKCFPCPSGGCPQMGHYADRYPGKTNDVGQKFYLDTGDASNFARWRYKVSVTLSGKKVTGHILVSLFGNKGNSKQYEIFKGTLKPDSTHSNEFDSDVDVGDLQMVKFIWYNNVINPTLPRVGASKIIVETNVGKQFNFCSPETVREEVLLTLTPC
From the text: as §1, §2
Fig. S1. Partial fragment molecules of a household library targeting to serine.
Commercially available materials were ordered from commercial suppliers (Bidepharm, Shanghai, China) and used without further purification. Structures were checked by 1H- and 13C-NMR spectra on a Bruker AVANCE 600/125 MHz instrument for confirmation, using DMSO- d6 or CDCl 3 as the solvent. Molecular orbitals were calculated using Gaussian 09W and image generated by GaussView 6.0.1
Inhibition assay on hCES1A
In this study, a known bioluminogenic probe substrate NLMe was used for human carboxylesterase 1 (hCES1A) inhibition assays. […]
The luminescence signals were monitored in the microplate reader (SpectraMax iD3Molecular […]
Human carboxylesterase 2 (hCES2A) inhibition assays were conducted using FD, a known fluorescent substrate. […] The fluorescent signals (excitation/emission, 480 nm/525 nm) were continuously recorded by a microplate reader (SpectraMax iD3Molecular Devices, Austria). […]
fluorogenic probe. […] The fluorescent signals of hydrolytic product were quantified by using the microplate reader (Spectra Max M4, Austria), with the wavelength of 600 nm and 660 nm for excitation and emission, respectively. […]

Structure (SMILES)	selective inhibitory activity on hCES2A [1]	response to hPL [2]	IC50 ([1]; 3 min incubation, read-out: hCES2A IC50 3 min)	time-dependent inhibition against hCES2A ([1]; 3 min vs 33 min incubation)	IC50 ([1]; 33 min incubation, read-out: hCES2A IC50 33 min)
O=S(=O)(F)c1ccc(Br)cc1 [D, 4-bromobenzenesulfonyl fluoride]	decent selective inhibitory activities	no potent responses	–	–	–
O=C(c1ccccc1)C(F)(F)F [F, 2,2,2-trifluoroacetophenone]	decent selective inhibitory activities	no potent responses	160 ± 18.4 nM	no significant time-dependent inhibition	336 ± 37.2 nM
